{"source": "patent US20080096244A1", "about": "“D-AMINOACYLASE” (DAIICHI PURE CHEMICALS CO., LTD., priority 2002, published 2008)", "key": {"[1]": {"system": "D-aminoacylase from Defluvibacter sp. A131-3 strain", "assay": "Production of D-valine by resolution of N-acetyl-D,L-valine (HPLC)", "type": "biochemical", "conditions": "15% aqueous N-acetyl-D,L-valine, enzyme 200 U/mL, 40° C.", "method": "It was then confirmed that the strains that had been selected by the chromogenic process show rapid reduction of the N-acetyl-D-valine and increase of the D-valine in an amount corresponding to the reduction of the N-acetyl-D-valine.\nBy using 15% aqueous solution of N-acetyl-D,L-valine as a substrate, D-aminoacylase from Defluvibacter sp. A131-3 strain was added with in an amount of 200 U per 1 ml of the aqueous solution of the substrate, and the reaction was allowed to proceed at 40° C. for 3 days. The rate of D-valine production by resolution from the N-acetyl-D,L-valine was measured by the HPLC method described in Example 1 (2)."}, "[2]": {"system": "D-aminoacylase from the Defluvibacter sp. A131-3 strain", "assay": "Substrate specificity, acylase activity measurement using D-/L-amino acid oxidase chromogenic reagent", "type": "biochemical", "source_text": "(4) Substrate specificity: Substrate specificity of the acylase of the present invention was confirmed by using the following N-acetyl-D-amino acids and N-acetyl-L-amino acids as the substrate and combining therewith the D-amino acid oxidase or the L-amino acid oxidase. The acylase of the present invention acts on the following N-acetyl-D-amino acids but not on the N-acetyl-L-amino acids.\nIn the measurement of the reactivity with the L-amino acids, an oxidase for L-amino acids is used instead of the D-amino acid oxidase in the activity measurement as will be described below.\n4. Substrate specificity was determined by an activity measurement method using the chromogenic reagents for the D- and L-amino acid oxidases as described above."}}}
{"smiles": "CC(=O)N[C@H](C(=O)O)C(C)C", "note": "[N-Ac-L-Val, N-acetyl-L-valine]", "values": [{"measurement": "Decomposition of the L-form by the enzyme", "setting": "[1]", "result": "not decomposed at all"}, {"measurement": "Substrate specificity: whether the enzyme acts on the substrate", "setting": "[2]; D- or L-amino acid oxidase detection", "result": "does not act on"}, {"measurement": "Relative activity (% in relation to Met)", "setting": "[2]; activity of N-acetyl-D-methionine = 100, 100 mmol/L substrate solution, pH 8, 37° C., 30 minutes", "result": 0, "unit": "%"}, {"measurement": "Relative activity (% in relation to Val)", "setting": "[2]; activity of N-acetyl-D-valine = 100, 100 mmol/L substrate solution, pH 8, 37° C., 30 minutes", "result": 0, "unit": "%"}]}
